Measurements from ChEMBL document CHEMBL4732252, “Generating Selective Leads for Mer Kinase Inhibitors-Example of a Comprehensive Lead-Generation Strategy” (J Med Chem, 2021).
Converted amounts (≈) assume the structure as drawn.

Tests used:
[1] = target: T1, Tyrosine-protein kinase receptor UFO (Homo sapiens, UniProt P30530); test: (§1) Inhibition of GST-tagged AXL (unknown origin) (464 to 485 residues) using Axltide (CKKSRGDYMTMQJG-acid) peptide as substrate preincubated for 30 mins followed by substrate and ATP addition at Km concentration measured after 180 mins by RapidFire LC-MS analysis
T1 sequence (P30530 whole entry): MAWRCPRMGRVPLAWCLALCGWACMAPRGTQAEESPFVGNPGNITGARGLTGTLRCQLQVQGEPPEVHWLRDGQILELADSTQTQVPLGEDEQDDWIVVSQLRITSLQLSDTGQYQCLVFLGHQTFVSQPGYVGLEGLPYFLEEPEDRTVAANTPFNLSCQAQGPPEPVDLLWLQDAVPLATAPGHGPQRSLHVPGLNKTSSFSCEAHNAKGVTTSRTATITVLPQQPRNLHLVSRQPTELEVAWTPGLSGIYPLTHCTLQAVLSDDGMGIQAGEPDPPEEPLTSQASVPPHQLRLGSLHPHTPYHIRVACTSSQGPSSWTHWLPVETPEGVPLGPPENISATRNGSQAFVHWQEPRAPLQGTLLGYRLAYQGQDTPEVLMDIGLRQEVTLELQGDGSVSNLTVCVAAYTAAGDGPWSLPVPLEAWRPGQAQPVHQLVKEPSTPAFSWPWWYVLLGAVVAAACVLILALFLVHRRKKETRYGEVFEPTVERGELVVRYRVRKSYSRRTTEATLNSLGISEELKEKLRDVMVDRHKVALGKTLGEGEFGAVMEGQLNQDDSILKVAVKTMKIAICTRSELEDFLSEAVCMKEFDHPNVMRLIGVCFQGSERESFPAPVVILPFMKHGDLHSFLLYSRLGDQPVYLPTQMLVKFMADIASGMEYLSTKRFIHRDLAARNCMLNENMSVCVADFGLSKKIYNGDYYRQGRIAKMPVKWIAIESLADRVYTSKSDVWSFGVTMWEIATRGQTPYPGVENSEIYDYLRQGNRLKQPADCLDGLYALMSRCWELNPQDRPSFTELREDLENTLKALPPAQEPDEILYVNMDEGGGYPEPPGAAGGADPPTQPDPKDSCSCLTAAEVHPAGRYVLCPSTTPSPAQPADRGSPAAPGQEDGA

[2] = target: T2, Tyrosine-protein kinase Mer (Homo sapiens, UniProt Q12866); test: as §1, with “6His/thrombin cleavage site-fused Avi-tagged dephosphorylated MER” for “GST-tagged AXL”, “(R528” for “(464”, “M999” for “485”, “120” for “180”
T2 sequence (Q12866 whole entry): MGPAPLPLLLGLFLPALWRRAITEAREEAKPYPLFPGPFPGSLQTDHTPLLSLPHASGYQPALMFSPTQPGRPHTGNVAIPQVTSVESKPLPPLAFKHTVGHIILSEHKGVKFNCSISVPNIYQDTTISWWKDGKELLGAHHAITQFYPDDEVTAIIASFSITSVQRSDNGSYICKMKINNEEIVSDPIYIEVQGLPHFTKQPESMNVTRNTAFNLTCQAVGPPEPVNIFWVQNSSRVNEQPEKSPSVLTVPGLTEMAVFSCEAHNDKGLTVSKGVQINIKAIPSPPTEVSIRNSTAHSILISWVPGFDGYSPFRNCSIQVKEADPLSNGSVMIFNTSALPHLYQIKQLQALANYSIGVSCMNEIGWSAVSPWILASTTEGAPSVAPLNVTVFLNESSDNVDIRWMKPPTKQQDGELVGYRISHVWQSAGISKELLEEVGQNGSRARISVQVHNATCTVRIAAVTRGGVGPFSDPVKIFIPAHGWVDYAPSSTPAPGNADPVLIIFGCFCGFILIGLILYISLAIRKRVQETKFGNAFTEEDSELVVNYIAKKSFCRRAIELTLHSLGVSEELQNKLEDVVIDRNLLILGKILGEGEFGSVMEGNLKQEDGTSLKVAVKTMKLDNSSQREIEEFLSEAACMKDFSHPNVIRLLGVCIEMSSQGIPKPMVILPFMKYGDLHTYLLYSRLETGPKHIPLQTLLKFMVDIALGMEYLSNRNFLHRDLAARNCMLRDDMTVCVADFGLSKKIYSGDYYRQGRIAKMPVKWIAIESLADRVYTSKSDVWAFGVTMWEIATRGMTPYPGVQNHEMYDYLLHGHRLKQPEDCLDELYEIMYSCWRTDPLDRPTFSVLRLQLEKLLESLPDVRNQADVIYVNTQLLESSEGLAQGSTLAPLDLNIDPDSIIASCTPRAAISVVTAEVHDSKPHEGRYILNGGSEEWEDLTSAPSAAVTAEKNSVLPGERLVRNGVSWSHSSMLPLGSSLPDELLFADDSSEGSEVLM

[3] = target: T3, Receptor-type tyrosine-protein kinase FLT3 (Homo sapiens, UniProt P36888); test: Inhibition of His6/TEV fused-GST-tagged Flt3 (unknown origin) (H564 to S993 residues) using Axltide (CKKSRGDYMTMQJ-acid) peptide as substrate preincubated for 30 mins followed by substrate and ATP addition at Km concentration measured after 75 mins by RapidFire LC-MS analysis
T3 sequence (P36888 whole entry): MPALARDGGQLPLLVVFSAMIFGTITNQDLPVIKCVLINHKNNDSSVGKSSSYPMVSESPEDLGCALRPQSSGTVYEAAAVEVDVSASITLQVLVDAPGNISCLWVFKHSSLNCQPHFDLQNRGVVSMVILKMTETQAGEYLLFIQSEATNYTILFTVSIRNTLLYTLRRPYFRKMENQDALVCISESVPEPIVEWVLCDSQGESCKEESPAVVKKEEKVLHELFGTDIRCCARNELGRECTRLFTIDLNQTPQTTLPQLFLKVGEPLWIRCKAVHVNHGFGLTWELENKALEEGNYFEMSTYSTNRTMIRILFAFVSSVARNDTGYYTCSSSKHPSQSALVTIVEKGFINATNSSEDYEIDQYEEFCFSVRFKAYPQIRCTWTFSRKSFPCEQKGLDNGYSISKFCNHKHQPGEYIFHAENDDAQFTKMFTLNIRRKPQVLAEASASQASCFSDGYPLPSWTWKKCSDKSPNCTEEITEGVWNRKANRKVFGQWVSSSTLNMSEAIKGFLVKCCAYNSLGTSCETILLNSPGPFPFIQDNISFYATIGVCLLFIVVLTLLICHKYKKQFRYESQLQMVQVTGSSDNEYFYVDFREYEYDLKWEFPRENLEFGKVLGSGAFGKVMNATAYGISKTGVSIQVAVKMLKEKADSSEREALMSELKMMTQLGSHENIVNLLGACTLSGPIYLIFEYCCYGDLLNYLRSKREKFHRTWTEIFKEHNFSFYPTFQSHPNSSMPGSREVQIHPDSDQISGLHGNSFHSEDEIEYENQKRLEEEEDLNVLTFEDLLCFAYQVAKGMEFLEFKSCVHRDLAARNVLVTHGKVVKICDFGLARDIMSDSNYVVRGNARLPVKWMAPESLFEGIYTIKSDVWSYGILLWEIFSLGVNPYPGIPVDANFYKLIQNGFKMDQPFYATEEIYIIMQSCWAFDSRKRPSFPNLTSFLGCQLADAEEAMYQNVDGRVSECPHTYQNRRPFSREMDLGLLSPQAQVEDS

[4] = Intrinsic clearance in rat hepatocytes assessed per 10^6 cells; format: ADME, cell-based, Hepatocyte; conditions: read-out: CLH
[5] = Intrinsic clearance in human liver microsomes; format: ADME, Microsome; conditions: read-out: CLH
[6] = Distribution coefficient, logD of compound at pH 7.4; format: physicochemical; conditions: octanol/water
[7] = Aqueous solubility of the compound; format: physicochemical
[8] = target: T1, Tyrosine-protein kinase receptor UFO; test: Inhibition of GST-tagged AXL (unknown origin) ([…] residues) using Axltide (CKKSRGDYMTMQJG-acid) peptide as substrate preincubated for 30 mins followed by substrate and ATP addition at Km concentration measured after 40 mins by ADP-Glo Reagent based method
[9] = target: T3, Receptor-type tyrosine-protein kinase FLT3; test: Inhibition of His6/TEV fused-GST-tagged Flt3 (unknown origin) (H564 to S993 residues) using Axltide (CKKSRGDYMTMQJ-acid) peptide as substrate preincubated for 30 mins followed by substrate addition in presence of ATP and measured for 90 mins by ADP-Glo Reagent based method

| SMILES | IC50 [1] [nM] | IC50 [2] [nM] | IC50 [3] [nM] | hepatocyte CLint [4] [µL/min/1e6 cells] | microsomal CLint [5] [µL/min/mg] | logD [6] | solubility [7] [µM] | IC50 [8] [nM] | IC50 [9] [nM] |
| --- | --- | --- | --- | --- | --- | --- | --- | --- | --- |
| O=C(Nc1ccc(Oc2cc(NC(=O)C3CC3)ncn2)cc1)Nc1ccc(CN2CCn3ccnc3C2)c(C(F)(F)F)c1 | 398 | 6.31 | 3.16 | 9 | 16 | 4.5 | 3 (≈ 1.78 µg/mL) | – | – |
| COc1cc2c(Nc3cnc(OCCCC4CCCC4)nc3)ncnc2cc1OCCCN1CCCCC1 | 10 | 0.794 | 20 | 2 | 96 | 4.5 | 130 (≈ 67.7 µg/mL) | – | – |
| CNc1nc(OC2CCCC2)nc2c1ncn2Cc1c(F)cccc1F | – | 126 | – | 190 | 240 | 4.3 | 9 (≈ 3.23 µg/mL) | 794 | 100000 |

Next, values leading:

| IC50 [1] [nM] | IC50 [2] [nM] | IC50 [3] [nM] | hepatocyte CLint [4] [µL/min/1e6 cells] | microsomal CLint [5] [µL/min/mg] | logD [6] | solubility [7] [µM] | IC50 [8] [nM] | IC50 [9] [nM] | SMILES |
| --- | --- | --- | --- | --- | --- | --- | --- | --- | --- |
| 1580 | 398 | 1260 | 32 | 5 | 2.8 | 27 (≈ 10 µg/mL) | – | – | CS(=O)(=O)c1cnc(Nc2ccc(O)cc2)nc1NCc1ccccc1 |
| – | 794 | – | 130 | 37 | 4.2 | 10 (≈ 3.55 µg/mL) | 31600 | > 79400 | CNC(=O)c1cnc(Nc2ccc(OC)cc2C)nc1NC1CCCC1 |
| – | 100 | – | < 1 | < 3 | 1.8 | 1000 (≈ 517 µg/mL) | 126 | 10000 | COc1cc2c(Nc3cnc(NC(=O)c4cccn4C)nc3)ncnc2cc1OCCCNC1CCCC1 |
